{"source": "patent US4824669A", "about": "“Formulations of coenzyme Q10 for intravenous use” (Board of Regents, The University of Texas System, priority 1987, dated 1989)", "key": {"[1]": {"assay": "blood CoQ10 levels expected after intravenous administration of CoQ10-fat emulsions", "format": "in vivo, human", "conditions": "i.v., control 5 mg", "protocol": "The intravenous formulations of the present invention may be used, for example, to introduce 15 mg, 10 mg and 5 mg of CoQ10 into the total body blood volume by intravenous administration of about 500 ml containing 30 μg/ml, 15 μg/ml and 7.5 μg/ml, respectively, of CoQ10. On the basis that the control blood level of CoQ10 /total body volume is 5 mg, then the total body volume would contain 20 mg, 15 mg, and 10 mg, respectively, after the intravenous administration of the three formulations.\nThese three particular exemplary formulations of the present invention will allow the introduction of CoQ10 into the blood of patients to levels of 2, 3 and 4 μg/ml, respectively, for a total amount of CoQ10 /total body volume of blood of, for example, about 10, 15 and 20 mg, respectively."}, "[2]": {"conditions": "soybean oil in soft gelatin capsules; cited from earlier work"}, "[3]": {"conditions": "100 mg daily (3 capsules of 33.3 mg in soybean oil), patients; cited from earlier work"}, "[4]": {"conditions": "oral, coronary artery by-pass graft surgery; Sunamori et al.; cited from earlier work"}, "[5]": {"conditions": "oral, cited from earlier work; for absorption (in words): human subjects"}, "[6]": {"assay": "blood levels on daily oral administration of CoQ10 capsules to patients", "format": "in vivo, human", "conditions": "if a blood level of 3 μg/ml of whole blood is achieved on oral therapy", "protocol": "It is known from the existing clinical data from the daily oral administration of 100 mg of CoQ10 to patients (3 capsules of 33.3 mg each in soybean oil), that blood levels in the range of about 2-4 μg/ml whole blood may be achieved. These blood levels on daily oral administration of 3 capsules vary between about 1.5 and 4 μg/ml whole blood, depending upon the initial control level, the variation of oral absorption, patient compliance, etc. If a blood level of 3 μg/ml of whole blood is achieved on therapy, the amount of CoQ10 in the total blood volume would be about 15 mg. The gastrointestinal absorption of CoQ10 from 3 capsules/day is about 15% or 15-20% according to Lucker et al. (citation under Background of the Invention). However, as mentioned earlier herein, oral administration of CoQ10 is undependable and sometimes difficult."}, "[7]": {"conditions": "clinical use; cited from earlier work"}, "[8]": {"assay": "visible separation / stability of CoQ10 in commercial fat emulsions", "format": "physicochemical", "protocol": "A preferred technique of preparing formulations of the present invention involved adding 1 ml of a fat emulsion such as Intralipid, Liposyn, Soyacal, and Travemulsion to each of three tubes. With a microsyringe, 1 μl of soybean oil containing 30 μg, 15 μg and 7.5 μg of CoQ10, respectively, was added to each of the three tubes containing 1 ml the fat emulsion. The microliter of soybean oil containing these three amounts of CoQ10 was easily visible by the yellow color on the surface of the fat emulsion. The contents of these tubes were cooled to less than about 5° C. and were then sonicated for about 5 seconds in an ice bath. The sonicated CoQ10 -fat emulsion was then drawn into a first syringe through the syringe needle. The needle of the first syringe was then connected to the needle of a second syringe. The CoQ10 -fat emulsion was then passed back and forth through the needles from the first syringe to the second syringe, and this mixing was repeated about 10 times. The needles of the two syringes were connected through a rubber stopper or a tubing, which sufficed for this laboratory scale preparation."}, "[9]": {"conditions": "solid particle dispersions in aqueous medium; cited from earlier work"}}, "note": "Read-outs that look alike come from different tables or passages of the source.", "data": [{"smiles": "COC1=C(OC)C(=O)C(C/C=C(\\C)CC/C=C(\\C)CC/C=C(\\C)CC/C=C(\\C)CC/C=C(\\C)CC/C=C(\\C)CC/C=C(\\C)CC/C=C(\\C)CC/C=C(\\C)CCC=C(C)C)=C(C)C1=O", "note": "[CoQ10, 2,3-dimethoxy-5-methyl-6-decaprenyl benzoquinone]", "values": [{"measurement": "CoQ10 in total body blood volume after intravenous administration", "setting": "[1]; about 500 ml containing 7.5 μg/ml", "result": 10, "unit": "mg"}, {"measurement": "CoQ10 in total body blood volume after intravenous administration", "setting": "[1]; about 500 ml containing 30 μg/ml", "result": 20, "unit": "mg"}, {"measurement": "stability in encapsulated soybean oil", "setting": "[2]", "result": "up to 6 years"}, {"measurement": "blood levels on daily oral administration", "setting": "[3]", "result": "2-4 μg/ml whole blood"}, {"measurement": "tissue concentrations of CoQ10 (in words)", "setting": "[4]", "result": "failed to allow satisfactory tissue concentrations of CoQ10"}, {"measurement": "absorption (in words)", "setting": "[5]", "result": "very slow absorption"}, {"measurement": "absorption (in words)", "setting": "[5]; listed as coenzyme Q10", "result": "slow and inefficient"}, {"measurement": "overall absorption of orally administered CoQ10", "setting": "[5]; human, Lucker et al.", "result": "10-20%"}, {"measurement": "orally administered dose recovered from the feces", "setting": "[5]; study period of 10 days", "result": "≤ 62", "unit": "%"}, {"measurement": "amount of CoQ10 in the total blood volume", "setting": "[6]", "result": "about 15 mg"}, {"measurement": "clinical safety record", "setting": "[7]", "result": "clinical record of safety of over a decade"}, {"measurement": "separation of CoQ10 from the emulsion", "setting": "[8]; 30, 15 and 7.5 μg/ml of commercial fat emulsion, sonicated and passed through syringe needles", "result": "did not visibly separate to the surface"}, {"measurement": "stability of emulsions at high CoQ10 level", "setting": "[8]; CoQ10 levels above about 30 μg/ml", "result": "tend to be unstable"}, {"measurement": "stability of simple combination with commercial fat emulsion", "setting": "[8]; simple combination of CoQ10 with one of the commercial fat emulsions", "result": "unstable formulations from which the CoQ10 would too readily separate"}, {"measurement": "settling on standing", "setting": "[9]", "result": "particles containing CoQ10 fall to the bottom of the container"}]}]}
